In publication PMC5874726, “Comparison Study of Two Differently Clicked ^18F-Folates—Lipophilicity Plays a Key Role” (Pharmaceuticals, 2018):
Read-outs that look alike come from different tables or passages of the source.

Experiments:
[1] = set-up: method as in doi:10.1039/C5MD00508F; settings: pH 7.4, shake-flask; cited from earlier work
[2] = set-up: method as in PMID 15745749; settings: pH 2, reversed-phase HPLC; cited from earlier work
[3] = target: T1, folate receptor (FR) (Homo sapiens, UniProt P15328); test: Displacement assay using KB cells and [^3H]folic acid; format: binding
T1 construct: endogenous in cells; host or cells: KB cells (human, from the German Collection of Microorganisms and Cell Cultures)

[4] = pH 2, reversed-phase HPLC
Experimental: The octanol-water (buffer) partition coefficient of ^18F-Alakyne and ^18F-Ala-folate was determined using the standard shake-flask method. Relative lipophilicity (k’ values) was determined by HPLC with an isocratic acetonitrile-phosphoric acid buffer eluent system at pH 2.4 as described elsewhere.

T1 sequence (P15328 25-257): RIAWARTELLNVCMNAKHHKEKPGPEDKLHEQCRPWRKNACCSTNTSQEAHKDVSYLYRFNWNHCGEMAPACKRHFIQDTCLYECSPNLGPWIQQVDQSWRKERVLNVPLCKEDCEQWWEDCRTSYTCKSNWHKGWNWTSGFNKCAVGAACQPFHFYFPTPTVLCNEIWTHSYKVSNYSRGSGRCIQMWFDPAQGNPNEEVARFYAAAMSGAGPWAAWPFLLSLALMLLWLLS

For O=C(CCOCCOCCOCC[18F])NCCC(=O)N1Cc2ccccc2C#Cc2ccccc21 [^18F-DBCO], the “logD7.4 Value” [1] is given as 1.2 ± 0.07 [18].

For Nc1nc(=O)c2nc(CNc3ccc(C(=O)N[C@@H](CCC(=O)O)C(=O)O)cc3)cnc2[nH]1 [native folic acid, folic acid], the “k′ Value” [2] is listed as 0.3 [5].

Nc1nc2ncc(CNc3ccc(C(=O)NC(CCC(=O)NCCOCCOCCOCCn4cc(CNC(CF)C(=O)O)nn4)C(=O)O)cc3)nc2c(=O)[nH]1 (stereo not drawn) [^19F-Ala-folate] gave a Ki ([3]; Cheng-Prusoff equation with Kd ([^3H]folic acid) = 1.0 nM) of 5.5 ± 0.4 nM, an IC50 ([3]; KB-cells, [^3H]folic acid) of 6.4 ± 0.5 nM and a pIC50 ([3]; KB-cells, [^3H]folic acid) of 8.20 ± 0.05. The “k′ Value” [4] was 0.27.
